# Measured values reported in patent publication US7906709B2, “Methods for breeding glyphosate resistant plants and compositions thereof” (priority 2006, dated 2011).
# Marks after values point to notes of the source that are not given here.
# How the values were obtained:
# R line of rigid ryegrass = test: Dose response study of plant injury, R line; assay type: in vivo, Lolium rigidum
# Protocol: A dose response study is conducted on the R and S lines of rigid ryegrass. The rates of glyphosate applied varied from 0.125×, 0.25×, 0.5×, 1×, 2×, 4×, 6×, 8×, 10×, to 12×. The sprayed solutions and application procedures are similar to those described previously. Plants are evaluated for visual injury at 4 WAT. Data (4 WAT) from two experiments with 8 replications of each treatment are analyzed by non-linear regression and fitted to a log-logistic model:
# [formula] where y is predictive of plant injury (% of control), X50=dose required to obtain 50% injury and b is the slope at X50.
# [1] = tested on: R biotype of the California rigid ryegrass; test: Glyphosate drops on leaves, resistant biotype; assay type: in vivo, Lolium rigidum; conditions: three 2 µl drops on two leaves, corresponds to 1.12 kg ai ha^-1; one week after treatment; ROUNDUP ULTRA (isopropylamine salt)
# Protocol: (§1) Rigid ryegrass (Lolium rigidum Gaud.) plants are collected from an almond orchard intensively treated with glyphosate since 1984. The collected plants are grown and seed produced in greenhouse. The resistant, intermediate and susceptible biotypes are selected in the first generation using 1.12, 2.24, and 3.36 kg ai ha^−1 rates of glyphosate. Further selection is continued with a high glyphosate rate (8.96 kg ai ha^−1) to select for the resistant and with the low rate (0.28 kg ai ha^−1) to select for the susceptible individuals. The resistant (R) and susceptible (S) biotypes used in this example are generated from the 5th and 4th cycle, respectively.
# R and S biotypes of the California rigid ryegrass are grown individually to the fully vegetatively mature stage prior to seedhead formation. In one experiment, two fully mature leaves of each plant (one R and one S biotypes) are treated with three 2 μl drops of glyphosate (glyphosate isopropylamine salt, ROUNDUP ULTRA™, Monsanto Co., St. Louis, Mo.) solution applied to the upper leaf surface. This corresponds to a field rate of 1.12 kg ai ha^−1 glyphosate at a volume of 187 L ha^−1 and pressure of 172.5 kPa. One week after treatment, the S biotype is dead, but no injury is observed on the R biotype.
# [2] = tested on: F2 population from cross between perennial ryegrass and glyphosate resistant rigid ryegrass; test: Glyphosate sensitivity of F2 hybrid population; assay type: in vivo, Lolium perenne x Lolium rigidum; conditions: 0.5× glyphosate; 3 WAT
# Protocol: The population of F2 is evaluated for glyphosate sensitivity with 0.5× glyphosate. Severely injured and dead plants are recorded 3 weeks after treatment (WAT) and are designated similar to the sensitive (S) parent. The survivors are re-acclimated for further evaluation at 8× glyphosate. The survivors from 8× glyphosate are designated similar to resistant (R) parent. The rest of the population that responded between S and R are identified as intermediate (I).
# [3] = tested on: F1 progeny of R and S lines of California rigid ryegrass; test: Glyphosate sensitivity of F1 progeny (RxS, SxR); assay type: in vivo, Lolium rigidum
# Text: Cross-pollination is arranged in the greenhouse between one plant each of the R and S lines which have similar maturity. To prevent pollen contamination from un-wanted ryegrass, the plants are covered with transparent plastic. The likelihood of selfing is less than 3% as discussed in, for example, Thorogood, Perennial Ryegrass (Lolium perenne L.) in M. D. Casler and R. R. Duncan, eds. Turfgrass Biology, Genetics, and Breeding, John Wiley & Sons, Inc., pp. 75-105 (2003). About 500 seeds from both R and S plants are harvested at maturity and kept separately. F1 plants are grown and maintained similarly as previously described. The F1 progeny are evaluated for glyphosate sensitivity when the plants are 5 to 8 cm tall. Glyphosate is sprayed at 0.125×, 0.5×, 0.25×, 1×, 2×, 4×, 6×, and 8× and the spray solutions prepared and delivered as described previously. The response of 10 plants in each of two experiments to glyphosate is recorded 3 and 4 WAT.
# [4] = tested on: F1 hybrid of perennial ryegrass and glyphosate resistant rigid ryegrass; test: Glyphosate sensitivity of F1 hybrid population; assay type: in vivo, Lolium perenne x Lolium rigidum; conditions: 50 plants, 3 weeks after treatment
# Protocol: The R biotype of California rigid ryegrass, which survived 8× glyphosate and perennial ryegrass, which died from 0.25× of glyphosate, are grown individually in 950-ml pots with professional planting mix media as discussed above. Plants are maintained in greenhouse with supplemental light, watered daily, and fertilized weekly with NPK water soluble fertilizer (20-20-20). At the mature vegetative stage, perennial ryegrass plants are vernalized in the growth chamber with the temperature 4 ±1 C, 8 h day and 16 h night. After 4 weeks vernalization, the plants are removed and maintained in greenhouse until flowering.
# Seed heads of perennial ryegrass are designated to be pollinated by California rigid ryegrass also vice-verse because both of the species are allogamus plants. Both are known to be self-incompatible. After the emergence of seed heads and before the pollen opened, one plant from each species is isolated in one room of greenhouse. To provide conditions for cross-pollination, perennial ryegrass and rigid ryegrass plants are placed next to each other. During the pollination period, plants are maintained regularly as mentioned previously until the seed reached the maturity. The successful hybridization is indicated with the full development of mature seeds which had brown color. Seeds are harvested from both perennial and rigid ryegrass. Seeds from perennial ryegrass hybrids are used for further evaluation.
# Seeds of the F1 hybrid harvested from perennial ryegrass are grown and maintained as individual plants in the greenhouse as described previously. At the tillering stage, 50 plants for each of glyphosate rates (0.25, 0.5, 1.0, 1.5, 2.0, 4.0, and 8×, where x=1.12 kg ha^−1) are evaluated for sensitivity or resistance. Glyphosate is delivered in 187 L ha^−1 spray solutions with 172.5 kPa pressure using a flat fan nozzle. The dead or survivors in each treatment are counted 3 weeks after treatment and the plants with the highest level of resistance are further maintained and intercrossed to generate F2.
# [5] = tested on: first generation of rigid ryegrass (Lolium rigidum) collected from California; test: Glyphosate resistance and sensitivity of the first generation; assay type: in vivo; conditions: for Survivors: means of two experiments with 90 plants
# Protocol: as §1
# The collected plants produced seeds in the greenhouse after 8 to 10 weeks. The seeds are designated as the first generation, harvested and replanted for glyphosate resistant evaluation. The percentages of survivors are 89, 59, 45, and 9 percent following glyphosate application at 1×, 2×, 4× and 8×, respectively, is shown in Table 2.
# [6] = Glyphosate 0.25 kg ha^-1 as headed
# [7] = Glyphosate 0.50 kg ha^-1 as headed
# [8] = Glyphosate 1 kg ha^-1 as headed
# [9] = Glyphosate 4 kg ha^-1 as headed
# [10] = Glyphosate 8 kg ha^-1 as headed
# [11] = glyphosate 1.12 kg ai ha^-1 (1x)
# [12] = glyphosate 2.24 kg ai ha^-1 (2x)
# [13] = glyphosate 4.48 kg ai ha^-1 (4x)
# [14] = glyphosate 8.96 kg ai ha^-1 (8x)
structure (smiles),measurement,setting,value
"O=C(O)CNCP(=O)(O)O [glyphosate, N-(phosphonomethyl) glycine]",survival,"R line of rigid ryegrass; R biotype, 8× glyphosate",survived
same,ratio of glyphosate rates between the R and S lines for 50% injury,"R line of rigid ryegrass; R line versus S line, 4 WAT",> 100 fold
same,glyphosate rate for 50% injury,"R line of rigid ryegrass; R line, visual injury 4 WAT, 1× = 1.12 kg ai ha^-1",11 ×
same,Plant injury,[1],no injury
same,percentage of the sensitive plants in F2,[2],16%
same,injury,"[3]; 2× glyphosate, 4 WAT",20-30%
same,recovery from injury,"[3]; 2× glyphosate, after 5 weeks",full recovery
same,highest glyphosate rate survived,[3]; F1 progeny (RxS) and (SxR),up to 2 ×
same,effect on F1 plants,[3]; glyphosate at 4× and higher rates,killed
same,Severely injured and dead,[4]; [6],0%
same,Survivors,[4]; [6],100%
same,Severely injured and dead,[4]; [7],6%
same,Survivors,[4]; [7],94%
same,Severely injured and dead,[4]; [8],10%
same,Survivors,[4]; [8],90%
same,Survivors,[4]; Glyphosate 2 kg ha^-1 as headed (2× in text),90%
same,Survivors,"[4]; Glyphosate 2 kg ha^-1 as headed (2× in text), listed as Glyphosate",90**) Percent
same,Severely injured and dead,[4]; Glyphosate 2 kg ha^-1 as headed,10%
same,Severely injured and dead,[4]; [9],100%
same,Survivors,[4]; [9],0%
same,Severely injured and dead,[4]; [10],100%
same,Survivors,[4]; [10],0%
same,Dead plants,[5]; [11],11^c percent
same,Survivors,[5]; [11],89%
same,Dead plants,[5]; [12],41%
same,Survivors,[5]; [12],59%
same,Dead plants,[5]; [13],55%
same,Survivors,[5]; [13],45%
same,Dead plants,[5]; [14],91%
same,Survivors,[5]; [14],9%
same,Survivors,"[5]; glyphosate 8.96 kg ai ha^-1 (8x), listed as Glyphosate",9^b percent
